From PMC7344389, “Discovery of Anti-Amoebic Inhibitors from Screening the MMV Pandemic Response Box on Balamuthia mandrillaris, Naegleria fowleri, and Acanthamoeba castellanii” (Pathogens, 2020)
Where two headings read alike, the source gives them in different places.

Legend:
Assay type in all cases: cell-based
[1] = test system: Balamuthia mandrillaris trophozoites; experiment: CellTiter-Glo 2.0 trophocidal assay, B. mandrillaris; conditions: for IC50: 72 h, CTG method, duplicate twofold serial dilutions from 10 µM, mean ± SD; for Selectivity Index (A549 IC50/B. mandrillaris IC50): SI = (IC50 A549)/(IC50 Amoeba)
Method: Pathogenic Balamuthia mandrillaris (CDC:[…]; American Type Culture Collection (ATCC) 50209), a GAE isolate, isolated from a pregnant baboon at the San Diego Zoo in 1986 was donated by Luis Fernando […] University, Mexico [43]. Trophozoites were routinely grown axenically in Balamuthia mandrillaris Itson (BMI) media at 37 °C, 5% CO2 in vented 75 cm^2 tissue culture flasks (Olympus, El Cajon, CA, USA), until the cells were 80-90% confluent. For sub-culturing, 0.25% Trypsin-EDTA (Gibco, Gaithersburg, MD, USA) cell detachment reagent was used to detach the cells from the culture flasks. The cells were collected by centrifugation at 4000 rpm at 4 °C. Complete BMI media is produced by the addition of 10% fetal bovine serum (FBS) and 125 μg of penicillin/streptomycin antibiotics. The trophocidal activity of compounds was assessed using the CellTiter-Glo 2.0 luminescent viability assay (Promega, Madison, WI, USA), as previously described. Trophozoites were routinely cultured as described above and only logarithmic trophozoites were used. […] Inhibitors were assessed for percent inhibition using the criteria of ≤33% growth inhibition (no inhibition), 33-67% growth inhibition (moderate inhibition), and ≥67% growth inhibition (strong inhibition). […] We used this process to reduce the number of potential false positives. […] All assays were incubated at each of the parasites' representative growth temperatures, described above, for 72 h. At the 72 h time point, 25 μL of CellTiter-Glo 2.0 reagent was added to all wells of the 96-well plates using the Biomek NX^P automated workstation. The plates were protected from light and contents were mixed using an orbital shaker at 300 rpm at room temperature for 2 min to induce cell lysis. After shaking, the plates were equilibrated at room temperature for 10 min to stabilize the luminescent signal. The adenosine triphosphate (ATP) luminescent signal (relative light units; RLUs) was measured at 490 nm with a SpectraMax I3X plate reader (Molecular Devices, Sunnyvale, CA, USA). Drug inhibitory concentration (IC50) curves were generated using total ATP RLUs, where controls were calculated as the average of replicates using the Levenberg-Marquardt algorithm, using DMSO as the normalization control, as defined in Collaborative Drug Discovery Inc. (CDD) Vault (Burlingame, CA, USA). Values reported are from a minimum of two biological replicates with standard deviations.

[2] = test system: Naegleria fowleri trophozoites; experiment: CellTiter-Glo 2.0 trophocidal assay, N. fowleri; conditions: for IC50: 72 h, CTG method, duplicate twofold serial dilutions from 10 µM, mean ± SD, read-out: N. fowleri Mean IC50 (µM) ± SD; for Selectivity Index (A549 IC50/N. fowleri IC50): SI = (IC50 A549)/(IC50 Amoeba); for potency against N. fowleri, in words: dose-response, CTG
Method: Pathogenic Naegleria fowleri (ATCC 30215), a clinical isolate obtained from a child in Adelaide, Australia, that died of PAM in 1969 was previously purchased from the American Type Culture Collection (ATCC). Trophozoites were routinely grown axenically at 34 °C in Nelson’s complete medium (NCM) in non-vented 75 cm^2 tissue culture flasks (Olympus, El Cajon, CA, USA), until the cells were 80–90% confluent. For sub-culturing, cells were placed on ice to detach the cells from the culture flasks. The cells were collected by centrifugation at 4000 rpm at 4 °C. Complete NCM media is produced by the addition of 10% FBS and 125 μg of penicillin/streptomycin antibiotics.
The trophocidal activity of compounds was assessed using the CellTiter-Glo 2.0 luminescent viability assay (Promega, Madison, WI, USA), as previously described. Trophozoites were routinely cultured as described above and only logarithmic trophozoites were used. In brief, B. mandrillaris, N. fowleri, or A. castellanii trophozoites cultured in their corresponding media were seeded at 16,000, 3000, or 1440 cells/well into white 96-well plates (Costar 3370), respectively. Initially all compounds were assessed in a single-point drug screen at 10 and 1 μM, as previously described. […] Control wells were supplemented with 0.1% (10 μM screening plate) or 0.01% (1 μM screening plate) DMSO, as the negative controls, or 12.5 μM of chlorhexidine, as the positive control. Following the single-point assays at 10 and 1 µM, we prioritized compounds for progression to IC50 determinations. […] We used this process to reduce the number of potential false positives. Drugs were cherry-picked, dissolved in the media specific to each parasite, and assessed in twofold serial dilutions from the highest concentration of 10 μM. All assays were incubated at each of the parasites’ representative growth temperatures, described above, for 72 h. At the 72 h time point, 25 μL of CellTiter-Glo 2.0 reagent was added to all wells of the 96-well plates using the Biomek NX^P automated workstation. The plates were protected from light and contents were mixed using an orbital shaker at 300 rpm at room temperature for 2 min to induce cell lysis. After shaking, the plates were equilibrated at room temperature for 10 min to stabilize the luminescent signal. The adenosine triphosphate (ATP) luminescent signal (relative light units; RLUs) was measured at 490 nm with a SpectraMax I3X plate reader (Molecular Devices, Sunnyvale, CA, USA). Drug inhibitory concentration (IC50) curves were generated using total ATP RLUs, where controls were calculated as the average of replicates using the Levenberg–Marquardt algorithm, using DMSO as the normalization control, as defined in Collaborative Drug Discovery Inc. (CDD) Vault (Burlingame, CA, USA). Values reported are from a minimum of two biological replicates with standard deviations.

[3] = test system: A549 human lung carcinoma cells; experiment: MTS cytotoxicity counter-screen of reconfirmed hits; conditions: Homo sapiens
Method: Cytotoxicity of the reconfirmed hits was determined by using the CellTiter 96® AQueous One Solution Cell Proliferation Assay (Promega, Madison, WI) on A549 human lung carcinoma cells. A549 cells were seeded at a concentration of 1.6 × 10^4 cells/mL in 96-well tissue culture plates (Corning, NY, USA), in the presence of serially diluted active hits against B. mandrillaris, N. fowleri, or A. castellanii. Positive control wells contained cells and media; negative control wells contained 0.1% DMSO. Cells were grown in F12K medium supplemented with 10% FBS and 1% gentamycin (all supplied from Fisher Scientific, Atlanta, GA, USA). The inhibitor concentration started at 10 µM and was diluted in doubling dilutions to assess cytotoxicity in comparison to the respective free-living amoeba. Total volume of each well was 100 µL and plates were incubated at 37 °C, 5% CO2 for 72 h. Next, 4 h before the time-point, 20 µL of MTS (Promega, Madison, WI, USA) was added to each well. Inhibition of A549 growth was assessed at the 72 h time-point measuring the optical density (OD) values at 490 nm using a SpectraMax I3X plate reader (Molecular Devices, Sunnyvale, CA, USA). Curve fitting using non-linear regression was carried out using the average of replicates and the Levenberg–Marquardt algorithm, using DMSO as the normalization control, as defined in CDD Vault (Burlingame, CA, USA).

[4] = A549, MTS assay, 72 h, doubling dilutions from 10 µM, read-out: A549 Mean IC50

## C[C@@H](c1nc(-c2ccc(C#N)cc2)cs1)[C@](O)(Cn1cncn1)c1ccc(F)cc1F [Ravuconazole]
[1]; Balamuthia mandrillaris
  IC50: > 10 µM
[2]; Naegleria fowleri
  IC50: 0.05 ± 0.02 µM
[2]; listed as ravuconazole
  Selectivity Index (A549 IC50/N. fowleri IC50): ≥ 10
[2]
  potency against N. fowleri, in words: nanomolar potency
[3]; [4]
  IC50: > 10 µM

## CN(C/C=C/C#CC(C)(C)C)Cc1cccc2ccccc12 [Terbinafine]
[1]; Balamuthia mandrillaris
  IC50: > 10 µM
[2]; Naegleria fowleri
  IC50: 0.79 ± 0.7 µM
[2]
  Selectivity Index (A549 IC50/N. fowleri IC50): ≥12.7
  potency against N. fowleri, in words: nanomolar potency
[2]; listed as terbinafine
  Selectivity Index (A549 IC50/N. fowleri IC50): ≥ 10
[3]; A549, 72 h, read-out: A549 Mean IC50 (µM)
  IC50: > 10 µM

## Cc1[nH]c2ccccc2c1CCNCc1ccc(/C=C/C(=O)NO)cc1 [Panobinostat]
[1]; Balamuthia mandrillaris
  IC50: 0.39 ± 0.04 µM
[1]
  Selectivity Index (A549 IC50/B. mandrillaris IC50): <0.79
[1]; dose-response, CTG
  potency against B. mandrillaris, in words: nanomolar potency
[2]; Naegleria fowleri
  IC50: 0.22 ± 0.06 µM
[2]
  Selectivity Index (A549 IC50/N. fowleri IC50): <1.44
  potency against N. fowleri, in words: nanomolar potency
[3]; [4]
  IC50: < 0.31 µM

## CN(Cc1ccc(C(C)(C)C)cc1)Cc1cccc2ccccc12 [Butenafine]
[1]; Balamuthia mandrillaris
  IC50: > 10 µM
[2]; listed as butenafine
  IC50: ≤ 10 µM
[2]
  IC50: 1.05 ± 0.35 µM
  Selectivity Index (A549 IC50/N. fowleri IC50): ≥9.52
[3]; [4]
  IC50: > 10 µM

## CC(=O)Oc1ccccc1C(=O)Nc1ncc([N+](=O)[O-])s1 [Nitazoxanide]
[1]; Balamuthia mandrillaris
  IC50: ≤ 10 µM
[1]
  IC50: 8.6 ± 1.98 µM
  Selectivity Index (A549 IC50/B. mandrillaris IC50): ≥1.16
[2]; Naegleria fowleri
  IC50: 3.6 µM
[2]
  Selectivity Index (A549 IC50/N. fowleri IC50): ≥2.78
[3]; [4]
  IC50: > 10 µM
